According to publication PMC11356571, “The Comparative Metabolism of a Novel Hepatocellular Carcinoma Therapeutic Agent, 2,3-Diamino-N-(4-(benzo[d]thiazol-2-yl)phenyl)propanamide, in Human and Animal Hepatocytes” (Metabolites, 2024):

What was measured:
CES1b = molecular target: T1, CES1b (Homo sapiens, UniProt P23141); assay: Incubation with human recombinant CES1b; type: in vitro ADME; conditions: 60 min at 37 °C, ETN101 10 μM or M1 1 μM
T1 construct: purchased Corning Life Sciences (Woburn, MA, USA)
T1 sequence (P23141 18-567): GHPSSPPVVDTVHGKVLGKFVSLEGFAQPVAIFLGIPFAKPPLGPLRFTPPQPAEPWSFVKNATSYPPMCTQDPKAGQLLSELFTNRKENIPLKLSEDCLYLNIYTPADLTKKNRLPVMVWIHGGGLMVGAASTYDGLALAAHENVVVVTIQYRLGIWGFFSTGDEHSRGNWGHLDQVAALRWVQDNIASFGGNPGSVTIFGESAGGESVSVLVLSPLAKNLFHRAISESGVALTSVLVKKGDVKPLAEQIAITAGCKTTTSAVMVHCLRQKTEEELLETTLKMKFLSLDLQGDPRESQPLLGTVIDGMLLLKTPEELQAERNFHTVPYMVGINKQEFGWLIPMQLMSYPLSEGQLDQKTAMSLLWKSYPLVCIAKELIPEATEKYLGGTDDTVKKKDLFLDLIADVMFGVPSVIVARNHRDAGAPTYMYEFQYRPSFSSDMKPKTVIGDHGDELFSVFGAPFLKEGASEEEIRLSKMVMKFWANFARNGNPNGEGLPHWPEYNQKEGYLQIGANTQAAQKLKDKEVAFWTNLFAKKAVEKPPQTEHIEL
Procedure: To screen for CES enzymes responsible for the hydrolysis of ETN101 or M1, 50 μL of reaction mixtures containing human cDNA-expressed CES enzymes (CES1b, CES1c, and CES2) at the concentration of 1 mg/mL, 10 μM ETN101, or 1 μM M1 in 0.1 M potassium phosphate buffer were incubated at 37 °C for 0 min or 60 min in triplicate. The reactions were quenched by adding 50 μL of ice-cold acetonitrile containing the internal standard (camptothecin, 10 μg/mL). Following centrifugation at 13,000 rpm for 5 min, a 2 μL aliquot of the supernatant was injected into the LC-MS/MS system.
The mobile phases comprised 0.1% (v/v) formic acid in water (mobile phase A) and 0.1% formic acid (v/v) in acetonitrile (mobile phase B). […] The column and auto-sampler were maintained at 40 °C and 4 °C, respectively. ETN101, M1, and M2 were detected via MRM using ESI in the positive mode. […] Mass Hunter software (Agilent Technologies) was used to control the LC-MS/MS instrument and for data processing.

human NAT1 = molecular target: T2, human NAT1 (Homo sapiens, UniProt P18440); assay: Incubation with cDNA-expressed human NAT1; type: in vitro ADME; conditions: cDNA-expressed human NAT1, 60 min at 37 °C, concentration of 0.1 μM
T2 construct: purchased Corning Life Sciences (Woburn, MA, USA)
T2 sequence (P18440 1-290): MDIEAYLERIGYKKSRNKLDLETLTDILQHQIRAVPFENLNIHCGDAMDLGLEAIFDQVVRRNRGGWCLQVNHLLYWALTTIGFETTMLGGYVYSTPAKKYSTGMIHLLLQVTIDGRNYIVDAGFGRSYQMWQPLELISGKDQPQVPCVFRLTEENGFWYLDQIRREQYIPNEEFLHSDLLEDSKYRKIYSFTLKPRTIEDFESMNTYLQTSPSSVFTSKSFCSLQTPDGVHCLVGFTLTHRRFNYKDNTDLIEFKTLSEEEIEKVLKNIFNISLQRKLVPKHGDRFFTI
Procedure: Additionally, M1 was incubated with cDNA-expressed human NAT1 isozyme to confirm the involvement of the NAT1 isozyme in the N-acetylation of M1. This was carried out by monitoring the remaining percentage of M1 and the formation of M2 in a concentration-dependent manner. A 225 μL reaction mixture containing cDNA-expressed human NAT1 at 1 μg/mL, and 1 μM M1 (final concentration: 0.1 and 1 μM) in 0.05 M potassium phosphate buffer was pre-warmed for 5 min. The reaction was initiated by adding 25 μL of acetyl-CoA regenerating system to the incubates. The acetyl-CoA regenerating system consisted of 0.1 mM acetyl-CoA, 4.5 mM acetyl-DL-carnitine, and 2.0 unit/mL carnitine acetyltransferase as final concentrations. The samples were incubated in triplicate for 0 min or 60 min at 37 °C. The reactions were stopped by adding 250 μL of ice-cold acetonitrile containing the IS (camptothecin, 500 ng/mL). Samples were centrifuged at 13,000 rpm for 5 min at 4 °C. An aliquot of 2 μL supernatant was injected in LC-MS/MS system.
For enzyme characterization, an Agilent 6460 triple quadrupole mass spectrometer coupled with a 1260 HPLC system (Agilent Technologies, Santa Clara, CA, USA) and a Kinetex Halo® C18 column (2.7 μm, 2.1 × 50 mm, Advanced Material Technology, Wilmington, DE, USA) were used for chromatographic separation. […] ETN101, M1, and M2 were detected via MRM using ESI in the positive mode. […]

Compound | Percentage remaining (CES1b) [%] | Percentage remaining of M1 (human NAT1) [%]
NCC(N)C(=O)Nc1ccc(-c2nc3ccccc3s2)cc1 (stereo not drawn) [ETN101, 2,3-diamino-N-(4-(benzo[d]thiazol-2-yl)phenyl)propanamide] | 98.6 | –
Nc1ccc(-c2nc3ccccc3s2)cc1 [M1, 2-(4-aminophenyl)benzothiazole] | 99.6 | 90.3
